The subject of experiment [1] is Pseudomonas aeruginosa wild strain PAM 1020. The experiment in a line: Combined use of a pump inhibitor, levofloxacin (LVFX) and meropenem (MEPM) evaluated by the three-dimensional checker board method. In kind it is cell-based. As to conditions: for FIC index: PAM 1020. The protocol: (1) Effect of Combined Used of a Pump Inhibitor, Levofloxacin (LVFX) and Meropenem (MEPM) Evaluated by the Three-Dimensional Checker Board Method
The effect was measured by the three-dimensional checker board method by using Pseudomonas aeruginosa wild strain PAM 1020. The test strain was inoculated into Mueller-Hinton broth containing LVFX, MEPM (at 11 concentration levels and 0 μg/ml) and the compound of Example 26 (40-0.625 μg/ml and 0 μg/ml) at a concentration of 10^6 CFU/ml and cultured at 37° C. for 18 hours. Then, MIC was measured for sole and combined use. Measurement was performed by the checker board method and FIC index was calculated according to the following equation. FIC index=a/a0+b/b0+c/c0 wherein a0: MIC for Agent A used alone, a: MIC for Agent A when Agents A, B and C are used in combination, b0: MIC for Agent B used alone, b: MIC for Agent B when Agents A, B and C are used in combination, c0: MIC for Agent C used alone, c: MIC for Agent C when Agents A, B and C are used in combination.
It was determined that there was synergistic effect when FIC index was 0.75 or less, additive effect or weak synergistic effect when the index was more than 0.75 but not more than 1.125, no effect of combined use when the index was more than 1.125 but not more than 3.0, and antagonistic effect when the index was more than 3.0.

For experiment [2], the system named is Pseudomonas aeruginosa PAM 1723 strain highly expressing the drug efflux pump. The experiment in a line: Effect of combined use with antimicrobial agent (levofloxacin, aztreonam) on multidrug resistant Pseudomonas aeruginosa. The class given is cell-based. As to conditions: 18 hours, MHB; for MPC8 AZT: minimum concentration of test compound required to enhance antibacterial activity of aztreonam at 1/8 or less of MIC; for MPC4 LVFX: minimum concentration of test compound required to enhance antibacterial activity of levofloxacin applied at 1/4 of MIC; for MPC8 LVFX: minimum concentration of test compound required to enhance antibacterial activity of levofloxacin applied at 1/8 or less of MIC. An excerpt: Effect of Combined Use with Antimicrobial Agent on Multidrug Resistant Pseudomonas aeruginosa
As multidrug resistant Pseudomonas aeruginosa, Pseudomonas aeruginosa PAM 1723 strain highly expressing the drug efflux pump was used. As antimicrobial drugs for the combinational uses, levofloxacin (LVFX) as a quinolone antibacterial agent and aztreonam (AZT) as a monobactam antibiotic were used. Each of the compounds shown in Table 1 with Example No., which falls within the compounds of the present invention, was subjected to the measurement of its minimum concentration (μg/ml) that was required to enhance the antibacterial activity of levofloxacin when the test compound was used in combination with levofloxacin applied at a concentration of 1/4, or 1/8 or less of the minimum inhibitory concentration against the PAM 1723 strain. […] Effects as combinational uses for 18 hours was indicated for each of the drugs. Effects were determined by visually observing the turbidity of the medium. The Müller-Hinton broth (MHB, Difco) was used as a medium, and the inoculum of the bacteria was 1×10^6 CFU/ml.

Usually MIC stands for the smallest concentration in the dilution series that meets the test's criterion for growth inhibition. Turning to `CC(C)c1csc(CCc2ccn3c(=O)c(/C=C/C(=O)O)c(N4CCCC(O)C4)nc3c2)n1` (stereo not shown) [Example 26], the FIC index turned out to be 1.039 in experiment [1] (LVFX + MEPM 0.016 μg/ml + compound of Example 26 0.625 μg/ml); 1.047 in experiment [1] (LVFX + MEPM 0.016 μg/ml + compound of Example 26 1.25 μg/ml); 1.063 in experiment [1] (LVFX + MEPM 0.016 μg/ml + compound of Example 26 2.5 μg/ml); 0.594 in experiment [1] (LVFX + MEPM 0.016 μg/ml + compound of Example 26 5 μg/ml); 0.656 in experiment [1] (LVFX + MEPM 0.016 μg/ml + compound of Example 26 10 μg/ml); 0.781 in experiment [1] (LVFX + MEPM 0.016 μg/ml + compound of Example 26 20 μg/ml). The FIC index in experiment [1] (LVFX + MEPM 0.016 μg/ml + compound of Example 26 40 μg/ml) is 1.031; in experiment [1] (LVFX + MEPM 0.0313 μg/ml + compound of Example 26 0.625 μg/ml), 1.07; in experiment [1] (LVFX + MEPM 0.0313 μg/ml + compound of Example 26 1.25 μg/ml), 1.078; in experiment [1] (LVFX + MEPM 0.0313 μg/ml + compound of Example 26 2.5 μg/ml), 0.5938; in experiment [1] (LVFX + MEPM 0.0313 μg/ml + compound of Example 26 5 μg/ml) it was 0.625; in experiment [1] (LVFX + MEPM 0.0313 μg/ml + compound of Example 26 10 μg/ml) it was 0.6875. The FIC index in experiment [1] (LVFX + MEPM 0.0313 μg/ml + compound of Example 26 20 μg/ml) is 0.8125; in experiment [1] (LVFX + MEPM 0.0313 μg/ml + compound of Example 26 40 μg/ml) it was 1.0625; in experiment [1] (LVFX + MEPM 0.0625 μg/ml + compound of Example 26 0.625 μg/ml), 1.133; in experiment [1] (LVFX + MEPM 0.0625 μg/ml + compound of Example 26 1.25 μg/ml), 0.641; in experiment [1] (LVFX + MEPM 0.0625 μg/ml + compound of Example 26 2.5 μg/ml), 0.656; in experiment [1] (LVFX + MEPM 0.0625 μg/ml + compound of Example 26 5 μg/ml), 0.438. The FIC index in experiment [1] (LVFX + MEPM 0.0625 μg/ml + compound of Example 26 10 μg/ml) is on record as 0.500; in experiment [1] (LVFX + MEPM 0.0625 μg/ml + compound of Example 26 20 μg/ml) it was 0.500; in experiment [1] (LVFX + MEPM 0.0625 μg/ml + compound of Example 26 40 μg/ml) it was 0.750; in experiment [1] (LVFX + MEPM 0.125 μg/ml + compound of Example 26 0.625 μg/ml), 0.781; in experiment [1] (LVFX + MEPM 0.125 μg/ml + compound of Example 26 1.25 μg/ml), 0.563; in experiment [1] (LVFX + MEPM 0.125 μg/ml + compound of Example 26 2.5 μg/ml), 0.500. Further, the FIC index turned out to be 0.563 in experiment [1] (LVFX + MEPM 0.125 μg/ml + compound of Example 26 5 μg/ml), 0.766 in experiment [1] (LVFX + MEPM 0.125 μg/ml + compound of Example 26 10 μg/ml) and 1.063 in experiment [1] (LVFX + MEPM 0.25 μg/ml + compound of Example 26 0.625 μg/ml). Besides, in experiment [1] (Pseudomonas aeruginosa, agent used alone, PAM 1020 strain), the MIC is at least 80 µg/mL. Further, in experiment [2], the “MPC8 AZT” value amounted to 1 µg/mL. In addition, in experiment [2], the “MPC4 LVFX” value was determined as 0.25 µg/mL. The “MPC8 LVFX” value in experiment [2] was determined as 1 µg/mL.
Consider `CC(C)c1csc(CCc2ccn3c(=O)c(/C=C/C(=O)NS(C)(=O)=O)c(N4CCOCC4)nc3c2)n1` [Example 98, N-((E)-3-{8-[2-(4-Isopropyl-1,3-thiazol-2-yl)ethyl]-2-morpholino-4-oxo-4H -pyrido[1,2-a]pyrimidin-3-yl}-2-propenoyl)methanesulfonamide], for which, in experiment [2], the “MPC8 AZT” value came to 4 µg/mL, the “MPC4 LVFX” value was 1 µg/mL and the “MPC8 LVFX” value was found to be 4 µg/mL.
Regarding `CC(C)c1csc(/C=C/c2ccn3c(=O)c(/C=C/c4nnn[nH]4)c(N4CCCC(O)C4)nc3c2)n1` (stereo not shown) [Example 104, 2-(3-Hydroxypiperidino)-8-[(E)-2-(4-isopropyl-1,3-thiazol-2-yl)-1-ethenyl]-3-[(E)-2-(1H-1,2,3,4-tetrazol-5-yl)-1-ethenyl]-4H-pyrido[1,2-a]pyrimidin-4-one], in experiment [2], the “MPC8 AZT” value was 0.5 µg/mL, the “MPC4 LVFX” value was found to be 0.24 µg/mL and the “MPC8 LVFX” value was 1 µg/mL.
In the same order, the values of `CC(C)c1csc(/C=C/c2ccn3c(=O)c(/C=C/C(=O)O)c(OCC4CCOC4)nc3c2)n1` (stereo not shown) [Example 117, (E)-3-{8-[(E)-2-(4-Isopropyl-1,3-thiazol-2-yl)-1-ethenyl]-4-oxo-2-(tetrahydro-3-furanylmethoxy)-4H-pyrido[1,2-a]pyrimidin-3-yl}-2-propenoic acid] are 4 µg/mL, 1 µg/mL and 4 µg/mL.
In the same order, the values of `CC(C)c1csc(CCc2ccn3c(=O)c(/C=C/C(=O)O)c(-c4ccncc4)nc3c2)n1` [Example 130] are 8 µg/mL, 2 µg/mL and 8 µg/mL.
In the same order, the values of `CC(C)c1csc(CCc2ccn3c(=O)c(/C=C(\F)C(=O)O)c(N4CCOCC4)nc3c2)n1` [Example 135, (Z)-2-Fluoro-3-{8-[2-(4-isopropyl-1,3-thiazol-2-yl)ethyl]-2-morpholino-4-oxo-4H-pyrido[1,2-a]pyrimidin-3-yl}-2-propenoic acid] are 8 µg/mL, 4 µg/mL and 16 µg/mL.
Take `CC(C)c1csc(CCc2ccn3c(=O)c(/C=C4/SC(=O)NC4=O)c(N4CCOCC4)nc3c2)n1` [Example 141, 5-(1-{8-[2-(4-Isopropyl-1,3-thiazol-2-yl)ethyl]-2-morpholino-4-oxo-4H-pyrido[1,2-a]pyrimidin-3-yl}methylidene)-1,3-thiazolidine-2,4-dione]: in experiment [2], the “MPC8 AZT” value came out at 2 µg/mL, the “MPC4 LVFX” value came to 0.25 µg/mL and the “MPC8 LVFX” value was determined as 16 µg/mL.
Turning to `CC(C)c1csc(CCc2ccn3c(=O)c(/C=C/C(=O)O)c(SCC(N)=O)nc3c2)n1` [Example 152, (E)-3-{2-Aminocarbonylmethylthio-8-[2-(4-isopropyl-1,3-thiazol-2-yl)-ethyl]-4-oxo-4H-pyrido[1,2-a]pyrimidin-3-yl}-2-propenoic acid], in experiment [2], the “MPC8 AZT” value came out at 4 µg/mL, the “MPC4 LVFX” value amounted to 2 µg/mL and the “MPC8 LVFX” value stood at 8 µg/mL.
As for `CCn1cc(-c2nn[nH]n2)c(=O)c2ccc(/C=C/c3nc(C(C)C)cs3)nc21` [Example 155, 1-Ethyl-7-[(E)-2-(4-isopropyl-1,3-thiazol-2-yl)-1-ethenyl]-3-(1H-1,2,3,4-tetrazol-5-yl)-1,4-dihydro[1,8]naphthylidin-4-one], in experiment [2], the “MPC8 AZT” value was determined as 2 µg/mL, the “MPC4 LVFX” value was 0.25 µg/mL and the “MPC8 LVFX” value came to 2 µg/mL.
